The pIC50 is −log10 of the IC50, conventionally taken in molar units. Read a high pIC50 as a small IC50.

In this assay the test system is Human Neuroblastoma IMR-32 Cell. Description: Inhibition of production and secretion of Aβ in IMR-32 cells (ELISA of Aβ). The following applies: 24 hours incubation, Aβ in supernatant by ELISA. Type of assay: cell-based. Here is the method: 1) Incubation of IMR-32 Cell
IMR-32 cells (American Type Culture Collection Inc.) were seeded to 35 mmφPetri dish (FALCON Ltd.) at 37° C. for 2 to 3 days at 1.5×10^5 cells/petri dish. A DMSO solution containing test compound was dissolved in a 0.2% bovine serum albumin (Sigma Inc.)/Dulbecco's modified Eagle medium (Sigma Inc.), and a 1 mL of the mixture was added to the above Petri dish and the mixture was incubated for additional 24 hours. A 0.2% bovine serum albumin/Dulbecco's modified Eagle medium without the test compound was used as a control. The supernatant was collected and centrifuged at 5000 rpm for 5 minutes to precipitate a suspension cell. After centrifugation, the supernatant was used as a measurement sample of Aβ.
(2) Determination by Enzyme-Linked Immunoassay (ELISA) of Aβ
To a maxi sorp 96 well plate (Nunc Inc.) was added 50 μL portions of 4G8 antibody (Sigma Inc.) dissolved in 0.1M carbonate buffer (pH 9.5) and the mixture was allowed to stand at 4° C. overnight. […] After washing three times with PBST, color was developed by TMB substrate kit (Pias Inc.) and the calorimetric method (measured wavelength: 450 nm) was determined by a plate reader (ELx 808, BIO-TEK INSTRUMENTS Inc.).
(In general: In an ELISA, binding on a coated surface is turned into a signal by an enzyme label.)

The structures appear in SMILES notation. pIC50: −log10 of the molar value.

Molecule `C[C@@H](NC(=O)c1cc(C(=O)N[C@@H](Cc2ccccc2)[C@@H](O)C(=O)Nc2ncc[nH]2)cc(N(C)S(C)(=O)=O)c1)c1ccccc1` [Example 1, N-[(1S,2R)-1-Benzyl-2-hydroxy-3-(1H-imidazol-2-ylamino)-3-oxopropyl]-5-[methyl(methylsulfonyl)amino]-N′-[(1R)-1-phenylethyl]isophthalamide] gave a pIC50 of 6.70.
